Measured values reported in ChEMBL document CHEMBL1201862, “PubChem BioAssay data set” (2004).
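Where inhibition never reached the appropriate level, the endpoint shown equals the highest concentration tested. Otherwise, values were interpolated linearly from a five-concentration, 48-hour dose response in 96-well plates. GI50 = concentration required for 50% inhibition of growth.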 Active and inactive are the calls of the source. Cut-off read from the data, not from the text of the source: active = GI50 up to about 1.1 µM and inactive = higher.

Legend:
Assay in all cases: DTP human tumour cell line panel, 48 h
786-0 = test system: 786-0
A549 = test system: A549
ACHN = test system: ACHN
CAKI-1 = test system: CAKI-1
CCRF-CEM = test system: CCRF-CEM
COLO 205 = test system: COLO 205
DLD-1 = test system: DLD-1
DMS-114 = test system: DMS-114
DMS-273 = test system: DMS-273
EKVX = test system: EKVX
HCC 2998 = test system: HCC 2998
HCT-116 = test system: HCT-116
HCT-15 = test system: HCT-15
HL-60 = test system: HL-60
HOP-62 = test system: HOP-62
HT-29 = test system: HT-29
IGROV-1 = test system: IGROV-1
K562 = test system: K562
KM-20L2 = test system: KM-20L2
KM12 = test system: KM12
LOX IMVI = test system: LOX IMVI
LXFL 529 = test system: LXFL 529
M14 = test system: M14
M19-MEL = test system: M19-MEL
MOLT-4 = test system: MOLT-4
Malme-3M = test system: Malme-3M
NCI-H226 = test system: NCI-H226
NCI-H23 = test system: NCI-H23
NCI-H460 = test system: NCI-H460
NCI-H522 = test system: NCI-H522
OVCAR-3 = test system: OVCAR-3
OVCAR-4 = test system: OVCAR-4
OVCAR-5 = test system: OVCAR-5
OVCAR-8 = test system: OVCAR-8
RPMI-8226 = test system: RPMI-8226
RXF 393 = test system: RXF 393
SF-268 = test system: SF-268
SF-295 = test system: SF-295
SK-MEL-28 = test system: SK-MEL-28
SK-MEL-2 = test system: SK-MEL-2
SK-MEL-5 = test system: SK-MEL-5
SK-OV-3 = test system: SK-OV-3
SN12C = test system: SN12C
SNB-19 = test system: SNB-19
SR = test system: SR
SW-620 = test system: SW-620
TK-10 = test system: TK-10
U-251 = test system: U-251
UACC-257 = test system: UACC-257
UACC-62 = test system: UACC-62
UO-31 = test system: UO-31
XF498 = test system: XF498
HOP-92 = test system: HOP-92
SF-539 = test system: SF-539
SNB-75 = test system: SNB-75

O=C1Nc2c(ccc(Cl)c2I)C1=O
GI50 (786-0): 15 µM (inactive) | GI50 (A549): 34.9 µM (inactive) | GI50 (ACHN): 15.6 µM (inactive) | GI50 (CAKI-1): 16.4 µM (inactive) | GI50 (CCRF-CEM): 20.2 µM (inactive) | GI50 (COLO 205): 16.3 µM (inactive) | GI50 (DLD-1): 18.5 µM (inactive) | GI50 (DMS-114): 15.5 µM (inactive) | GI50 (DMS-273): 17 µM (inactive) | GI50 (EKVX): 16.4 µM (inactive) | GI50 (HCC 2998): 19.6 µM (inactive) | GI50 (HCT-116): 19.1 µM (inactive) | GI50 (HCT-15): 18.9 µM | GI50 (HL-60): 18.5 µM (inactive) | GI50 (HOP-62): 20.8 µM (inactive) | GI50 (HT-29): 28.4 µM (inactive) | GI50 (IGROV-1): 16.6 µM (inactive) | GI50 (K562): 23.8 µM (inactive) | GI50 (KM-20L2): 30 µM (inactive) | GI50 (KM12): 24.4 µM (inactive) | GI50 (LOX IMVI): 19.1 µM (inactive) | GI50 (LXFL 529): 14 µM (inactive) | GI50 (M14): 15.7 µM (inactive) | GI50 (M19-MEL): 11.4 µM (inactive) | GI50 (MOLT-4): 18.7 µM (inactive) | GI50 (Malme-3M): 15 µM (inactive) | GI50 (NCI-H226): 22.5 µM (inactive) | GI50 (NCI-H23): 14.6 µM (inactive) | GI50 (NCI-H460): 17.9 µM (inactive) | GI50 (NCI-H522): 15.6 µM (inactive) | GI50 (OVCAR-3): 19.9 µM (inactive) | GI50 (OVCAR-4): 16.9 µM (inactive) | GI50 (OVCAR-5): 20 µM (inactive) | GI50 (OVCAR-8): 28.2 µM (inactive) | GI50 (RPMI-8226): 15.5 µM (inactive) | GI50 (RXF 393): 17.4 µM (inactive) | GI50 (SF-268): 20 µM (inactive) | GI50 (SF-295): 19.2 µM (inactive) | GI50 (SK-MEL-28): 18.4 µM (inactive) | GI50 (SK-MEL-2): 13.7 µM (inactive) | GI50 (SK-MEL-5): 15.7 µM (inactive) | GI50 (SK-OV-3): 18.5 µM (inactive) | GI50 (SN12C): 17.1 µM (inactive) | GI50 (SNB-19): 42.3 µM (inactive) | GI50 (SR): 18.8 µM (inactive) | GI50 (SW-620): 18.7 µM (inactive) | GI50 (TK-10): 36.2 µM (inactive) | GI50 (U-251): 25.5 µM (inactive) | GI50 (UACC-257): > 10 µM (inactive) | GI50 (UACC-62): 17.6 µM (inactive) | GI50 (UO-31): 18.2 µM (inactive) | GI50 (XF498): 16 µM (inactive)

O=C(c1ccccc1)c1c(CNCc2ccccc2)n(C(=O)c2ccccc2)c2ccccc12
GI50 (786-0): > 100 µM (inactive) | GI50 (A549): 22.4 µM (inactive) | GI50 (ACHN): 14.5 µM (inactive) | GI50 (CAKI-1): 69.3 µM (inactive) | GI50 (CCRF-CEM): 23.2 µM (inactive) | GI50 (COLO 205): 47 µM (inactive) | GI50 (DLD-1): 35.4 µM (inactive) | GI50 (DMS-114): 21.2 µM (inactive) | GI50 (DMS-273): 47.1 µM (inactive) | GI50 (HCC 2998): 86.9 µM (inactive) | GI50 (HCT-116): 8.67 µM (inactive) | GI50 (HCT-15): 28.8 µM | GI50 (HL-60): 23.3 µM (inactive) | GI50 (HOP-62): 80.5 µM (inactive) | GI50 (HOP-92): 13.7 µM (inactive) | GI50 (HT-29): 24.6 µM (inactive) | GI50 (IGROV-1): > 100 µM (inactive) | GI50 (K562): 6.37 µM (inactive) | GI50 (KM-20L2): 40 µM (inactive) | GI50 (KM12): 18.9 µM (inactive) | GI50 (LXFL 529): 30.4 µM (inactive) | GI50 (M14): 34.4 µM (inactive) | GI50 (M19-MEL): 92.3 µM (inactive) | GI50 (MOLT-4): 7.43 µM (inactive) | GI50 (Malme-3M): 77.1 µM (inactive) | GI50 (NCI-H226): 29.6 µM (inactive) | GI50 (NCI-H23): 17.1 µM (inactive) | GI50 (NCI-H460): 14.5 µM (inactive) | GI50 (NCI-H522): 4.52 µM (inactive) | GI50 (OVCAR-3): 15.4 µM (inactive) | GI50 (OVCAR-4): 9.95 µM (inactive) | GI50 (OVCAR-5): > 100 µM (inactive) | GI50 (OVCAR-8): 37.4 µM (inactive) | GI50 (RPMI-8226): 11.6 µM (inactive) | GI50 (SF-268): 43.4 µM (inactive) | GI50 (SF-295): 9.51 µM (inactive) | GI50 (SF-539): 69.3 µM (inactive) | GI50 (SK-MEL-28): > 100 µM (inactive) | GI50 (SK-MEL-2): 63.4 µM (inactive) | GI50 (SK-MEL-5): 29.9 µM (inactive) | GI50 (SNB-19): 22.8 µM (inactive) | GI50 (SNB-75): 2.84 µM (inactive) | GI50 (SR): 6.58 µM (inactive) | GI50 (SW-620): 71.6 µM (inactive) | GI50 (TK-10): > 100 µM (inactive) | GI50 (U-251): 20.8 µM (inactive) | GI50 (UACC-257): 29.6 µM (inactive) | GI50 (UACC-62): 95.3 µM (inactive) | GI50 (UO-31): 8.95 µM (inactive) | GI50 (XF498): > 100 µM (inactive)
